Assay results as given in patent US6653258B1 (priority 1987, dated 2003).
Like-named read-outs stand apart in the source and are kept apart here. Marks after values point to notes of the source that are not given here.

Key:
[1] = tested on: Erysiphe graminis; experiment: Foliar fungal disease test on Erysiphe graminis, plants inoculated 24 hours before treatment (Table V); format: in vivo; parameters: key: 4: no disease; 3: trace −5% of disease on untreated plants; 6-25% of disease on untreated plants; 1: 26-59% of disease on untreated plants; 60-100% of disease on untreated plants
[2] = tested on: foliar fungal diseases of plants; format: in vivo; parameters: key to disease control grading, […] (VINE): 4: no disease; 3: trace −5% of disease on untreated plants; key to disease control grading, PUCCINIA RECONDITA (WHEAT) / disease control grading, VENTURIA INAEQUALIS (APPLE) / disease control grading, CERCOSPORA ARACHIDICOLA (PEANUT) / disease control grading, PH[…] (TOMATO) / disease control grading, P[…] (RICE): 4: no disease; 3: trace −5% of disease on untreated plants; 6-25% of disease on untreated plants; 1: 26-59% of disease on untreated plants; 60-100% of disease on untreated plants; settings: for disease control grading, CERCOSPORA ARACHIDICOLA (PEANUT): Cercospora arachidicola on peanut; for disease control grading, P[…] (RICE): P[…] on rice; for disease control grading, PH[…] (TOMATO): Ph[…] on tomato; for disease control grading, PUCCINIA RECONDITA (WHEAT): Puccinia recondita on wheat; for disease control grading, VENTURIA INAEQUALIS (APPLE): Venturia inaequalis on apple; for disease control grading, […] (VINE): […] on vine
[3] = plants inoculated 24 hours before treatment
[4] = applied to soil (roots) and foliage one or two days before inoculation

Structure (SMILES) | disease control grading, ERYSIPHE GRAMINIS (BARLEY) [1, 3] | disease control grading, CERCOSPORA ARACHIDICOLA (PEANUT) [2, 4] | disease control grading, P[…] (RICE) [2, 4] | disease control grading, PH[…] (TOMATO) [2, 4] | disease control grading, PUCCINIA RECONDITA (WHEAT) [2, 4] | disease control grading, VENTURIA INAEQUALIS (APPLE) [2, 4] | disease control grading, […] (VINE) [2, 4] | disease control grading, ERYSIPHE GRAMINIS (BARLEY) ([1]; 25 ppm foliar spray only) | disease control grading, CERCOSPORA ARACHIDICOLA (PEANUT) ([2]; 25 ppm foliar spray only) | disease control grading, P[…] (RICE) ([2]; 25 ppm foliar spray only) | disease control grading, PH[…] (TOMATO) ([2]; 25 ppm foliar spray only) | disease control grading, PUCCINIA RECONDITA (WHEAT) ([2]; 25 ppm foliar spray only) | disease control grading, VENTURIA INAEQUALIS (APPLE) ([2]; 25 ppm foliar spray only) | disease control grading, […] (VINE) ([2]; 25 ppm foliar spray only)
CO/C=C(/C(=O)OC)c1ccccc1COc1ccc(F)cc1 [156 (Table I)] | 4 | 4 | 0 (60-100% of disease on untreated plants) | 4 | 4 | 4 | 4 |  |  |  |  |  |  | 
CO/C=C(/C(=O)OC)c1ccccc1COc1cccc(Oc2ccccc2Cl)c1 [182 (Table I)] | 4 | 4 | 4 | 4 | 4 | 3 (trace −5% of disease on untreated plants) | 4 |  |  |  |  |  |  | 
CO/C=C(/C(=O)OC)c1ccccc1COc1cccc(C(F)(F)F)c1 [168 (Table I)] | 4 | 3 (trace −5% of disease on untreated plants) | 4 | 4 | 4 | 4 | 4 |  |  |  |  |  |  | 
CO/C=C(/C(=O)OC)c1ccccc1COc1ccc(Cl)c(Cl)c1 [45 (Table I)] | 3 (trace −5% of disease on untreated plants) | 4 | 4 | 4 | 4 | 4 | 4 |  |  |  |  |  |  | 
CO/C=C(/C(=O)OC)c1ccccc1COc1cccc(Br)n1 [176 (Table I)] | 4 |  | 4 | 4 | 4 | 4 | 4 |  |  |  |  |  |  | 
CO/C=C(/C(=O)OC)c1ccccc1COc1ccc(Cl)cc1Cl [43 (Table I)] | 4 | 4 | 4 | 4 | 4 | 4 | 4 |  |  |  |  |  |  | 
CO/C=C(/C(=O)OC)c1ccccc1COc1cccc(C=O)c1 [175 (Table I)] | 1 (26-59% of disease on untreated plants) | 1 (26-59% of disease on untreated plants) | 0 (60-100% of disease on untreated plants) | 4 | 3 (trace −5% of disease on untreated plants) | 4 | 4 |  |  |  |  |  |  | 
CO/C=C(/C(=O)OC)c1ccccc1COc1cccc(I)c1 [25 (Table I)] | 4 | 4 | 2 (6-25% of disease on untreated plants) | 3 (trace −5% of disease on untreated plants) | 4 | 4 | 4 |  |  |  |  |  |  | 
CO/C=C(/C(=O)OC)c1ccccc1COc1cccc(Br)c1 [166 (Table I)] | 4 | 4 | 4 | 4 | 4 | 4 | 4 |  |  |  |  |  |  | 
CCCN(Cc1ccccc1/C(=C\OC)C(=O)OC)c1ccccc1 [4 (Table III)] |  |  |  |  |  |  |  | 0* (60-100% of disease on untreated plants) | 0* (60-100% of disease on untreated plants) | 0* (60-100% of disease on untreated plants) | 0* (60-100% of disease on untreated plants) | 0* (60-100% of disease on untreated plants) | 3* (trace −5% of disease on untreated plants) | 1* (26-59% of disease on untreated plants)
CO/C=C(/C(=O)OC)c1ccccc1COc1cc(Cl)cc(Cl)c1 [162 (Table I)] | 4 | 4 | 2 (6-25% of disease on untreated plants) | 3 (trace −5% of disease on untreated plants) | 4 | 4 | 4 |  |  |  |  |  |  | 
CCOc1cc(OCc2ccccc2/C(=C\OC)C(=O)OC)ccc1OC [170 (Table I)] | 4 | 4 | 3 (trace −5% of disease on untreated plants) | 4 | 0 (60-100% of disease on untreated plants) | 4 | 4 |  |  |  |  |  |  | 
CO/C=C(/C(=O)OC)c1ccccc1COc1cccc(/C=N/c2ccccc2)c1 [179 (Table I)] | 0 (60-100% of disease on untreated plants) | 0 (60-100% of disease on untreated plants) | 2 (6-25% of disease on untreated plants) | 4 | 3 (trace −5% of disease on untreated plants) | 0 (60-100% of disease on untreated plants) | 4 |  |  |  |  |  |  | 
CO/C=C(/C(=O)OC)c1ccccc1COc1ccccc1Cl [157 (Table I)] | 4 | 4 | 4 | 3 (trace −5% of disease on untreated plants) | 4 | 4 | 4 |  |  |  |  |  |  | 
COC=C(C(=O)OC)c1ccccc1C(C)Sc1ccccc1 (stereo not drawn) [2 (Table II)] | 4 | 0 (60-100% of disease on untreated plants) | 4 | 4 | 4 | 4 | 4 |  |  |  |  |  |  | 
CO/C=C(/C(=O)OC)c1ccccc1COc1ccc(Br)cc1 [159 (Table I)] | 3 (trace −5% of disease on untreated plants) | 4 | 0 (60-100% of disease on untreated plants) | 3 (trace −5% of disease on untreated plants) | 4 | 4 | 0 (60-100% of disease on untreated plants) |  |  |  |  |  |  | 
